Measurements as given in PubChem BioAssay (NCI).
Several values for one entry are separate records, joined by “and”; a condition that tells them apart may be missing. Equal entries are not always repeated.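 Grown in 96-well plates, cells were treated for 48 hours with each compound at five concentrations. Insufficient inhibition: endpoint recorded as highest concentration tested. Abbreviation: GI50, concentration required for 50% inhibition of growth. TGI: total growth inhibition.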

Assays:
Test in all cases: inhibition of tumour cell growth, NCI panel, 48 h
ACHN renal = test system: ACHN renal
HT29 colon = test system: HT29 colon
HOP-62 NSCLC = test system: HOP-62 NSCLC
M19-MEL melanoma = test system: M19-MEL melanoma
SW-620 colon = test system: SW-620 colon
DMS 114 small cell lung = test system: DMS 114 small cell lung
UACC-257 melanoma = test system: UACC-257 melanoma
HCT-116 colon = test system: HCT-116 colon
CCRF-CEM leukemia = test system: CCRF-CEM leukemia
HCC-2998 colon = test system: HCC-2998 colon
EKVX NSCLC = test system: EKVX NSCLC

| Compound | TGI (ACHN renal) | TGI (HT29 colon) | TGI (HOP-62 NSCLC) | TGI (M19-MEL melanoma) | TGI (SW-620 colon) | TGI (DMS 114 small cell lung) | TGI (UACC-257 melanoma) | TGI (HCT-116 colon) | TGI (CCRF-CEM leukemia) | TGI (HCC-2998 colon) | TGI (EKVX NSCLC) | GI50 (HT29 colon) | GI50 (SW-620 colon) | GI50 (UACC-257 melanoma) | GI50 (HCT-116 colon) |
| --- | --- | --- | --- | --- | --- | --- | --- | --- | --- | --- | --- | --- | --- | --- | --- |
| CC(C)C(N)=O | > 5000 µM | > 5000 µM | > 5000 µM | > 5000 µM | > 5000 µM | > 5000 µM | > 5000 µM | > 5000 µM | > 5000 µM |  |  |  |  |  |  |
| Nc1nn2c(nc(N)c3c(N)[nH]nc32)c1N=Nc1ccc(Br)cc1 | > 100 µM | > 100 µM | > 93 µM |  | > 100 µM |  | > 100 µM | > 100 µM | > 100 µM | > 100 µM | > 100 µM |  |  |  |  |
| CN(c1ccccc1Cl)S(=O)(=O)c1ccc([N+](=O)[O-])cc1 | > 100 µM | > 100 µM | > 100 µM |  | > 100 µM |  | > 100 µM | > 100 µM | > 100 µM | > 100 µM | > 100 µM |  |  |  |  |
| CC1=C(C(=O)c2ccccc2)C23C(=O)N(c4ccccc4)C(=O)C2=C(O)C=CC3(O)N1 (stereo unspecified) | 40.4 µM | 32.3 µM | > 100 µM |  | 72.7 µM |  | > 100 µM | > 100 µM | > 100 µM | 56.4 µM | > 100 µM |  |  |  |  |
| N#Cc1c(-c2ccccc2)[nH]c(=O)n(C2OC(CO)C(O)C(O)C2O)c1=O (stereo unspecified) | > 100 µM | > 100 µM | > 100 µM |  | > 100 µM |  | > 100 µM | > 100 µM | > 100 µM | > 100 µM | > 100 µM |  |  |  |  |
| Cc1ccc(/C=N/Nc2ccc3ccccc3n2)s1 | 39.9 µM | 44 µM | 41.1 µM |  | 92.1 µM |  | > 100 µM | 24 µM | > 100 µM | 30.7 µM | 32.2 µM |  |  |  |  |
| Nc1ccc(C(=O)c2cn(CCN3CCOCC3)c3ccccc23)c2ccccc12 | > 100 µM | 55.9 µM | > 100 µM |  | > 100 µM |  | > 100 µM | > 100 µM | 45.3 µM | > 100 µM | 90.8 µM |  |  |  |  |
| c1csc(C[N+]23CN4CN(CN(C4)C2)C3)c1 | > 100 µM | > 100 µM | 46.6 µM | 56 µM | 90.7 µM | 40.2 µM | > 100 µM | > 100 µM | 44.9 µM | 34.1 µM |  |  |  |  |  |
| COc1ccc(N2C(=O)C3c4[nH]c5ccc(F)cc5c4C4CCC(c5ccccc5)CC4C3C2=O)cc1 (stereo unspecified) | 74.1 µM | > 100 µM | 28.1 µM |  | 59.9 µM |  | 97 µM | > 100 µM | 16.5 µM | > 100 µM | 63 µM |  |  |  |  |
| CC(=O)NC1=C[C@@H]([C@H]2COC(C)(C)O2)OC1=O |  | > 100 µM | > 100 µM | > 100 µM | > 100 µM | > 100 µM | > 100 µM | > 100 µM | > 100 µM | > 100 µM | > 100 µM |  |  |  |  |
| O=C1CCCCCCCCCCC1CN1CCCCC1 (stereo unspecified) | > 100 µM | > 100 µM | > 100 µM | > 100 µM | > 100 µM | > 100 µM | > 100 µM | > 100 µM | > 100 µM | > 100 µM | > 100 µM |  |  |  |  |
| CC1OC(OC2C(OC(=O)[C@]34CCC(C)(C)C[C@H]3C3=CC[C@@H]5[C@@]6(C)CC[C@H](OC7OC(C(=O)O)C(O)C(OC8OCC(O)C(O)C8O)C7O)C(C)(C)[C@@H]6CC[C@@]5(C)[C@]3(C)CC4)OCC(O)C2O)C(O)C(OC2OCC(O)C(O)C2O)C1OC1OCC(O)C(OC2OCC(O)C(O)C2O)C1O (stereo partly specified) | 19.6 µM and 25.1 µM | 15 µM and 24.2 µM | 30.7 µM and 32.6 µM |  | 29.5 µM and > 100 µM |  | 20.2 µM and 32.5 µM | 62.5 µM and > 100 µM | 32.1 µM and 31.4 µM | 4.13 µM and 11.9 µM | 22.6 µM and 35.7 µM | 4.28 µM and 11.9 µM | 13.6 µM and 27.4 µM | 7.06 µM and 16.6 µM | 8.78 µM and 22.9 µM |
| O=C(O)Cc1ccc2[nH]c(O)c(C3=Nc4ccccc4C3=O)c2c1 | > 100 µM | > 100 µM | > 100 µM |  | > 100 µM |  | > 100 µM | 68.5 µM | > 100 µM | > 100 µM | > 100 µM |  |  |  |  |
| Cc1c2c(OCCN3CCCCC3)nn(C)c(=O)c2c(C)n1-c1ccccc1 | > 100 µM | > 100 µM | > 100 µM |  | > 100 µM |  | 42.6 µM | > 100 µM | > 100 µM | 65.3 µM | > 100 µM |  |  |  |  |
| CC(=O)N=C1N(/C=C2\C(=O)Oc3ccccc3C2=O)C(=O)/C(=C/c2ccc(NC(C)=O)cc2)N1C | > 100 µM | > 100 µM | > 100 µM |  | > 100 µM |  | > 100 µM | > 100 µM | > 100 µM | > 100 µM | > 100 µM |  |  |  |  |
| NC1=CN2c3ccccc3N(CC(=O)O)C2C=C1 (stereo unspecified) | > 100 µM | > 100 µM | > 100 µM |  | > 100 µM |  | > 100 µM | > 100 µM | > 100 µM | > 100 µM | > 100 µM |  |  |  |  |
| C=C1C(=O)O[C@@H]2C=C(C)C3=CC(=O)[C@](C)(C[C@H](OC(=O)/C(C)=C\C)[C@@H]12)O3 | 3 µM | 2.73 µM | 10.5 µM |  | 1.33 µM |  | 8.62 µM | 0.868 µM | 0.82 µM | 3.06 µM | 8.78 µM |  |  |  |  |
